The text below walks through data of patent publication US6177422A (Warner-Lambert Company, priority 1998, dated 2001).

The target of the assay is T1, human recombinant dopamine D4.2 receptor (Homo sapiens, UniProt P21917, DEL265-296).
T1 construct: expressed in transfected cells
T1 sequence (P21917 with tags, fused parts or gaps DEL265-296): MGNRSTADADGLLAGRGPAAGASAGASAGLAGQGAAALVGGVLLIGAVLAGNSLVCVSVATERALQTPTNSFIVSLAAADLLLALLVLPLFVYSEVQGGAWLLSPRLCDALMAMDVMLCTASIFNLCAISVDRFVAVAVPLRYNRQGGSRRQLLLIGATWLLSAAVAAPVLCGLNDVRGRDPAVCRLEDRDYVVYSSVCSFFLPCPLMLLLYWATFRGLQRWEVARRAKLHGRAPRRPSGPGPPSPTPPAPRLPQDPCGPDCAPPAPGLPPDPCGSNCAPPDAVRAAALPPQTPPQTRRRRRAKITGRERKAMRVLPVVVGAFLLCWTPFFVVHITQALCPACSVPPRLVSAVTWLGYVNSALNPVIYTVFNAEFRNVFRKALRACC
As to the kind of experiment: [3H]spiperone receptor binding assay, human dopamine D4.2, CHO K1 cell membranes.

Regarding `O=C1COc2ccc(CN3CCN(c4ccc(C(F)(F)F)cc4)CC3)cc2N1` [Example 31, 6-[4-(4-Trifluoromethyl-phenyl)-piperazin-1-ylmethyl]-4H-benzo[1,4]oxazin-3-one], the Ki was determined as 173 nM.
As for `Cc1ccc(C2CCN(Cc3ccc4c(c3)NC(=O)CO4)CC2)cc1` [Example 16, 6-(4-p-Tolyl-piperidin-1-ylmethyl)-4H-benzo[1,4]oxazin-3-one], the Ki worked out at 2.84 nM.
